Laboratory results from US9594047B2, “Potentiometric sensors and method for measuring intermolecular interactions” (Universiteit Antwerpen, priority 2013, dated 2017).

Experiments:
[1] = tested on: Gelatin B; experiment: Potentiometric FIA response on gelatin B-coated electrode without aptamer (negative control sensor); assay type: binding; conditions: for Rmax response in mV: 10^−5M injection, coating Gelatin B
Description: (§1) A R=10^mV/S−1 conversion was then plotted (see equation 4). […] Four electrodes were tested, each 3 injections.

[2] = tested on: DA-specific aptamer (58 mer); experiment: Potentiometric FIA sensorgram, gelatin B sensor with covalently linked DA-specific aptamer; assay type: binding; conditions: for Rmax response in mV: 10^−5M injection, coating Gelatin B + DA-specific aptamer; for change in sensitivity (Rmax) when aptamer is coupled to gelatin B: with versus without aptamer
From the text: (§2) [formula] Starting from the “association” part of the sensorgram, one can now plot dR/dt versus R. For a pseudo-first-order kinetics, this will yield a straight line with slope equal to slope=−(koncanalyte+koff) (12) Plotting this slope versus canalyte then yields a graph from which kon and koff can be calculated.
(§3) From kon and koff, Kassoc=kon/koff is obtained, from which Kdiss (=1/Kassoc) and the Gibbs free energy of interaction can be calculated (ΔG^0=−RT ln Kass). Kdiss is most frequently used term to express intermolecular interactions. This type of analysis was done for different electrode/analyte combinations. Examples were chosen so as to include examples where the immobilized component (in the coating layer of the sensor) includes large biomolecules (DNA).
(§4) The flow injection analysis (FIA) recordings were performed using an LC-10ADvp pump (Shimadzu Liquid Chromatography) and a Rheodyne 7125 six-port external sample injector (VICI, Houston, Tex.). A 1.00 mL sample loop was used to generate square concentration pulses for sensorgram recording in FIA conditions. […] The flow rate was 1.00 mL min^−1. Poiseuille peak broadening effects were kept to a minimum using short injector-detector connections (150 mm). To avoid such effects at the end of the square concentration pulse, the injector was switched from inject to load after 40 s (well before the sample loop volume was totally emptied).
The well-known ethyl-dimethyl-aminopropylcarbodiimide and n-hydroxy-succinimide (EDC-NHS) coupling procedure was used (with minor modifications) to bind the aminated aptamer covalently to the hydrogel, which contains carboxyl groups. After adding 20 μL of the coupling agents (15.32 mg of EDC and 2.32 mg of NHS dissolved in 100 μl of 10.0 mM MES buffer at pH 7.0) to the coated hydrogel for 2 h, 2×4 μL of the aptamer (10^−4M) was applied for 1 h. After evaporation for 2 h, at 4° C. the electrodes were kept in 10.0 mM MES running buffer, pH 7.0.
All chemicals were of analytical reagent grade. The FIA eluents were prepared daily by the dilution of a concentrated phosphoric acid solution or by dissolving HEPES, both obtained from Acros Organics (Filter Service NV, Eupen, Belgium). High-molecular-mass PVC was obtained from Janssen Chimica (Beerse, Belgium). The other membrane components were of the highest quality grade available from Fluka (Sigma-Aldrich, Bornem, Belgium). These include plasticizer TCPB, DOS, and the solvent tetrahydrofuran (THF). Type gelatin A (IEP (isoelectric point)=8.8, bloom strength 202), isolated from porcine skin by acid treatment, was obtained from Tessenderlo Chemie (Belgium). Promazine, lidocaine and tartaric acid were obtained from Sigma-Aldrich.
After checking the coupling of the aptamer to the biopolymer as described above, the electrodes were placed in a FIA potentiometric setup.
as §1

[3] = target: DA-specific aptamer; conditions: read-out: Kdiss determined colorimetrically; Zheng (2011); cited from earlier work
[4] = cited from earlier work
[5] = Potentiometric FIA sensorgram, linearization method, rubber phase (PVC) coated sensor; assay type: binding; conditions: for koff: from plot of slope versus canalyte (on phase kinetics); for kon: from plot of slope versus canalyte, eluent 5.0 mM H3PO4 pH 2.4
From the text: The model is based on the assumption that the rate determining phenomenon is the adsorption of analyte A (second molecular species) to the surface receptor sites Rsurface: A+Rsurface⇄ARsurface (5) Receptor sites are occupied by the analyte are designated as Roccupied. The rate of adsorption can be expressed as νon: […]
Differential equation 6 can be solved to yield equations 8 and 10. In these equations, Roccupied is replaced by R, the concentration-related response (10^mV/S−1), as both are linearly related (see above). Rmax is the value of R which is obtained at the plateau of the sensorgram: R(t)=Rmax(1−e^−k^obsd^t) (8) where kobsd=[…] (9) Equation 7 yields the well-known first-order exponential desorption formula: R(t)=Rmaxe^−k^off^t (10)
as §2, §3, §4
The eluent was 5.0 mM H3PO4 (pH 2.4) for the poly(vinyl chloride) (PVC)-based electrodes and 0.5 mM 4-(2-hydroxyethyl)-1-piperazine-ethanesulfonic acid (HEPES; pH 6.0) for the hydrogel electrodes (see the section “Potentiometric Electrode”). The column outlet was directed perpendicularly toward the sensitive membrane of the coated wire electrode in a “wall-jet” flow cell [see FIG. 1 and Bazylak, G.; Nagels, L. J. J. Pharm. Biomed. Anal. 32 (2003) 887-903]. The distance from the LC tubing outlet to the electrode was 0.100 mm unless otherwise stated.
The membrane potential was measured against an Orion 800500 Ross reference electrode (Ag/AgCl) using a high impedance (10^13Ω) home-made amplifier. The detection signals were recorded on a data station composed of a PC equipped with a 6013 NI DA converter and LabVIEW 7 (National Instruments, Austin, Tex.) based software. The overall RC time constant of the high-impedance amplifier plus data station was set to 0.200 s.
Electrodes with a composite substrate have the important property that the membrane coating and the composite are tightly mixed at the interface, and sensors constructed in this way show very good impedance characteristics (see Nagels, L; Bohets, H.; Jimidar, M. U.S. Pat. No. 7,857,962 B2). These characteristics were verified using impedance spectroscopy. The measurements were performed with an Autolab Metrohm PGSTAT 128N FRA instrument (frequency 1-100 kHz, amplitude 10 mV). A semicircle in the Nyquist plot was obtained if the electrode had good impedance characteristics. Discussions on such characteristics of potentiometric sensors are well described in Mattinen, U.; Rabiej, S.; Lewenstam, A.; Bobacka, J. Electrochim. Acta 56 (2011) 10683-10687; and Bobacka, J.; Ivaska, A.; Lewenstam, A. Chem. Rev. 108 (2008) 329-351. […]

[6] = tested on: gelatin A coating (collagen material); experiment: Potentiometric FIA sensorgram, linearization method, gelatin A-coated sensor; assay type: binding, porcine
From the text: as §2, §3
as §4, with “To avoid such effects at the end of the square concentration pulse, the injector was switched from inject to load after 40 s (well before the sample loop volume was totally emptied).” left out

[7] = Potentiometric sensorgram of an oligonucleotide analyte; conditions: 10^−5 M injection
From the text: Coating materials such as gelatin are easily doped by proteins [see De Wael, K.; De Belder, S.; Van Vlierberghe, S.; Van Steenberge, G.; Dubruel, P. Talanta 82 (2010) 1980-1985] antibodies, bioparticles (viruses, bacteria, . . . ), DNA, and aptamers. Large biomolecules can be used as analyte (prey ligand) (second molecular species). From experience with oligonucleotides [Nagels, L. J.; Everaert, J.; Bohets, H.; Del Favero, J.; Goossens, D.; Robbens, J.; Pietraszkiewicz, M.; Pietraszkiewicz, O., Comb. Chem. High Throughput Screening 10 (2007) 555-559] it is known that these multiply charged molecules give very good potentiometric responses. For example, the 22-mer 5′-[…]-3′ yields a slope (S, equations 2 and 3) value of 38 mV per decade, which is much higher than that calculated by the Nernst equation (equation 2). This is due to the fact that equation 2 was derived for point charges, while an oligonucleotide is a multiply charged rodlike molecule. It is detected three times more sensitively (on a molar basis) than a small, well-responding anionic molecule such as maleic acid. […] This means that the described method can also be used to measure DNA/DNA interactions. Potentiometry also allows working with miniaturized electrode arrays (eventually with ion-sensitive field-effect transistor (ISFET) readout), which means that high-throughput measurements can be considered.

Row | Compound | Rmax response in mV [1] | Rmax response in mV [2] | change in sensitivity (Rmax) when aptamer is coupled to gelatin B [2] | sensitivity of gelatin B based sensors [1] | Kassoc=kon/koff [5] | koff [5] | kon [5] | also measured
1 | NCCc1ccc(O)c(O)c1 [Dopamine, dopamine] | 9.46 mV | 92.86 mV | very clear increase in Rmax |  |  |  |  | Kass [2]: 3.04e+07 M⁻¹; koff [2]: 0.0007 s⁻¹; kon [2]: 21200 M⁻¹ s⁻¹; signal (Rmax) with aptamer-containing electrodes versus electrodes without aptamer ([2]; four electrodes, each 3 injections): From five to ten times higher signals; Kd ([2]; mean of four electrodes, read-out: mean value of Kdiss): 1310 nM; Kd [3]: 700 nM
2 | CN(C)CCCN1c2ccccc2Sc2ccccc21 [Promazine] | 3.66 mV | 2.44 mV | no improvement in sensitivity | quite insensitive | 2.74e+06 M⁻¹ | 0.0365 s⁻¹ | 100000 M⁻¹ s⁻¹ | log P [4]: 4.36
3 | CC(NCCc1ccc(O)cc1)C(O)c1ccc(O)cc1 (stereo not drawn) [Ritodrine, ritodrine] | 1.83 mV | 1.57 mV | no improvement in sensitivity | quite insensitive |  |  |  | 
4 | CCN(CC)CC(=O)Nc1c(C)cccc1C [Lidocaine, lidocaine] | 2.88 mV | 1.57 mV | no improvement in sensitivity | quite insensitive | 275000 M⁻¹ | 0.0717 s⁻¹ | 19700 M⁻¹ s⁻¹ | average value of koff ([5]; off phase, all curves at different concentrations): 0.0748 s⁻¹
5 | O=C(O)C(O)C(O)C(=O)O (stereo not drawn) [tartaric acid] |  |  |  |  |  |  |  | koff [6]: 0.0472 s⁻¹; kon ([6]; from plot of slope versus canalyte, 0.5 mM HEPES pH 6.0): 66700 M⁻¹ s⁻¹
6 | 5′-AAAATATCATCTTTGGTGTTTC-3′ (chemistry not given here) [22-mer oligonucleotide used as analyte] |  |  |  |  |  |  |  | koff ([7]; off phase): 0.032 s⁻¹; kobsd ([7]; on phase): 0.055 s⁻¹
